“And” between values parts separate entries of the source, which are not always exact repeats. Identical values can stand only once.
How the values were obtained:
Format in all cases: in vivo
[1] = tested on: mouse; assay: No observed adverse effect level on peroral administration to a mouse for 14 days; settings: perorally administered to a mouse for 14 days; TAS-102 dose as reduced to FTD
Description: α,α,α-Trifluorothymidine (hereinafter abbreviated as FTD) and TPI were suspended in a 0.5% (w/v) HPMC solution to adjust their concentrations to 5.0 mg/mL and 2.65 mg/mL, respectively, and the suspension was stirred at room temperature for about 10 minutes. Subsequently, the suspension was ultrasonicated under ice cooling, to thereby prepare a drug liquid with a dose of 50 mg/kg/day (as reduced to FTD). Hereinafter, the drug liquid is referred to as TAS-102. The dose of the TAS-102 liquid is a “no observed adverse effect level” when the liquid is perorally administered to a mouse for 14 days.
FTD was suspended in a 0.5% (w/v) HPMC solution to adjust their concentrations to 5.0 mg/mL, and the suspension was stirred at room temperature for about 10 minutes. Subsequently, the suspension was ultrasonicated under ice cooling, to thereby prepare a FTD drug liquid with a dose of 50 mg/kg/day. The dose of FTD is a “no observed adverse effect level” when the liquid is perorally administered to a mouse for 14 days.

[2] = tested on: human lung cancer strain (LC-11); assay: Test Example 4: anti-tumor effect of TAS-102 or FTD with or without X-ray irradiation in LC-11-transplanted nude mice
[3] = tested on: human lung cancer strain (LC-11); assay: Test Example 2: anti-tumor effect of TPI or TUPI with or without X-ray irradiation in LC-11-transplanted nude mice; settings: for RTV Day 15 / RTV Day 22 / RTV Day 29: mean ± S.D.
Description: (§1) TPI was suspended in a 0.5% (w/v) HPMC solution to adjust the concentration to 1.5 or 5.0 mg/mL, and the suspension was stirred at room temperature for about 10 minutes by means of a stirrer. Subsequently, the suspension was ultrasonicated under ice cooling for about five minutes, to thereby prepare a TPI drug liquid with a dose of 15 mg/kg/day or 50 mg/kg/day.
as §1, with “5-Chloro-6-aminouracil (hereinafter abbreviated as TUPI) was” for “TPI was”, “to” for “to 1.5 or”, “a TUPI” for “a TPI”, “of” for “of 15 mg/kg/day or”
By means of a radiation apparatus (model: MBR-1505R2, product of Hitachi Medical Corp.), mice were irradiated with X-rays under such irradiation conditions that the unit dose to one mouse was adjusted to 2 Gy or 5 Gy, by controlling the distance from the radiation source to the mouse. Specifically, radiation was applied locally to the right femoral region of each mouse where cells of a human tumor strain had been transplanted. In order to avoid systemic irradiation, the mouse was placed in a lead box so that only the right leg was exposed to the radiation.
The human lung cancer strain (LC-11) subcutaneously transplanted into the back of a BALB/cA-nu mouse and grown beforehand were removed, cut into small pieces (about 2×2 mm^2) with scissors in physiological saline, and subcutaneously transplanted into the right femoral region of 5- to 6-week-old mice of the same strain with a transplantation needle. The thus-treated mice were bred for adaptation for at least 1 to 2 weeks and divided into a control group, radiation-only groups, drug-only groups, and radiation-drug combination groups, each group consisting of 6 mice, such that the average tumor volume and the standard deviation (S.D.) were equalized to a maximum extent between groups. Then, administration of the drug and irradiation were started. To each of the mice of the groups subjected to drug administration, the aforementioned TPI liquid or TUPI liquid was perorally administered, by means of an oral administration probe, once a day at a dose of 0.1 mL/10 g-body weight for 14 continuous days. The mice of the groups subjected to radiation were irradiated with X-rays at a dose of 2 Gy or 5 Gy through the aforementioned method within about one hour after administration of the TPI liquid or the TUPI liquid on the test day 1 and day 8. To the cancer-bearing mice of the control group (non-radiation/non-drug administration group) and those of the radiation-only groups, only 0.5% HPMC liquid was perorally administered through the same method for 14 continuous days.
The tumor volume of each mouse of the above groups, which was calculated by the equation 1 in Test Example 1, was determined before the start of the treatment test, and on day 3, day 5, day 8 (1 week after), day 11, day 15 (after termination of administration, 2 weeks after), day 18, day […], day 25, and day 29 (4 weeks after). A relative tumor volume (RTV) to the tumor volume at the start of the test was obtained for each mouse. […] Then, the average tumor growth inhibition rate (IR: %) with respect to the control group was calculated on day 15, day 22, and day 29 (after termination of the treatment period) in a manner similar to that of Test Example 1.

[4] = 50 mg/kg (as reduced to FTD) p.o. once a day for 14 days + X-ray 2 Gy on day 1 and day 8
[5] = 50 mg/kg (as reduced to FTD) p.o. once a day for 14 days, no X-ray
[6] = 50 mg/kg p.o. once a day for 14 days + X-ray 2 Gy on day 1 and day 8
[7] = 50 mg/kg p.o. once a day for 14 days, no X-ray

O=c1[nH]c(=O)n([C@H]2C[C@H](O)[C@@H](CO)O2)cc1C(F)(F)F [FTD, α,α,α-Trifluorothymidine]
no observed adverse effect level [1]: 50 mg/kg/day
IR (%) Day 15 [2, 4]: 35.8%
IR (%) Day 22 [2, 4]: 48.6%
IR (%) Day 29 [2, 4]: 58.5%
IR (%) Day 15 [2, 5]: 52% and 51.8%
IR (%) Day 22 [2, 5]: 57% and 57.2%
IR (%) Day 29 [2, 5]: 59%
potentiation of anti-tumor effect of X-ray radiation (in words) ([2]; 50 mg/kg + X-ray 2 Gy): the anti-tumor effect did not increase

Nc1[nH]c(=O)[nH]c(=O)c1Cl [TUPI, 5-Chloro-6-aminouracil, reference compound]
IR (%) Day 15 [3, 6]: 36.6%
IR (%) Day 22 [3, 6]: 41.2%
IR (%) Day 29 [3, 6]: 50.2%
RTV Day 15 [3, 6]: 3.2 ± 0.8
RTV Day 22 [3, 6]: 5.3 ± 1.7
RTV Day 29 [3, 6]: 8.8 ± 2.5
IR (%) Day 15 [3, 7]: 12.7%
IR (%) Day 22 [3, 7]: 17.5%
IR (%) Day 29 [3, 7]: 21.4%
RTV Day 15 [3, 7]: 4.4 ± 1.8
RTV Day 22 [3, 7]: 7.4 ± 3.3
RTV Day 29 [3, 7]: 14.0 ± 6.3
anti-tumor effect of the drug singly administered (in words) ([3]; 50 mg/kg, no X-ray): virtually no anti-tumor effect
potentiation of anti-tumor effect of X-ray radiation (in words) ([3]; drug + X-ray 2 Gy): no potentiation of anti-tumor effect was observed

Reference: US8440675B2, “Potentiator of radiation therapy” (Taiho Pharmaceutical Co., Ltd., priority 2006, dated 2013)
